A word on the IC50: it is the concentration at which inhibition is half-maximal.

Assay [1] addresses T1, LINE1 reverse transcriptase (Homo sapiens, UniProt O00370). In words: Stable artificial-intron Cis LINE1 reporter assay. Further details: host or cells: HeLa Tet-On 3G. Format: cell-based. The settings on record: stable HeLa Tet-On 3G L1 reporter cells, doxycycline 500 ng/mL, 72 h; Firefly Luciferase activity. How it is done: Exemplary compounds were tested for ability to inhibit LINE1 reverse transcriptase using a stable artificial-intron Cis LINE1 reporter assay. Assay procedures and results are described below.
A stable HeLa Tet-On 3G (Takara, cat no 631183) cell line expressing a bi-directional inducible LINE1 construct was generated as described in Xie, Y. et al. “Cell division promotes efficient retrotransposition in a stable L1 reporter cell line,” Mobile DNA (2013) 4:10. Single cell clones were screened for high Luciferase expression and the highest expression Firefly expressing clone was chosen for compound testing.
Test compounds were serially diluted in DMSO and spotted in 96-well plates. Subsequently the HeLa L1 artificial-intron reporter cells were plated into the compound-containing wells (8,000 cells/well), and the cells were induced for reporter expression with doxycycline (Sigma cat no D9891) at a final concentration of 500 ng/mL. Luminescence was measured 72 h after plating using the Dual-Glo Luciferase Assay System (Promega cat no E2940) following the manufacturer's instructions. The Firefly Luciferase activity was used to report LINE1 activity.
A general note: Reporter assays use an easily measured gene product as a stand-in for the process of interest.

For assay [2], the target named is T1, LINE1 reverse transcriptase. The assay can be described thus: Transient artificial-intron Cis LINE1 reporter assay. It counts as cell-based. The note with it: HEK 293 cells, transient transfection; ratio FLuc/RLuc reports LINE1 activity. How it is done:
The following compound (hereinafter “Test Compound”) was tested for ability to inhibit LINE1 reverse transcriptase using a transient artificial-intron Cis LINE1 reporter assay:
Additional exemplary compounds were also tested for ability to inhibit LINE1 reverse transcriptase using a transient artificial-intron Cis LINE1 reporter assay. Assay procedures and results are described below.
Intron-disrupted Firefly luciferase (FLuc) expression cassettes were generated as described by Xie, Y. et al. “Characterization of L1 retrotransposition with high-throughput dual-luciferase assays,” Nucleic Acid Res. (2011) Vol. 39, No. 3, e16. In addition, the plasmid contained an intact Renilla luciferase (RLuc) expression cassette on the vector backbone, in order to normalize transfection efficiency and measure potential cell toxicity.
HEK 293 cells were seeded in 96-well plates at 1,000 cells/well in 55 μL and grown for 24 hours. Cells were transfected with FuGeneHD (Promega) following the manufacturer's protocol. Each well received 0.133 ng plasmid, 0.4 μL FuGeneHD reagent, and 4.5 μL GlutaMAX-I-supplemented Opti-MEM I reduced-serum medium (Invitrogen). Cells were simultaneously treated with test compound serially diluted starting at 100 μM in a 3-fold dilution dose response.
Luminescence was measured using the Dual-Glo Luciferase Assay System (Promega) following the manufacturer's instructions. The ratio between FLuc and RLuc gene expression was used to report LINE1 activity.

T1 sequence (O00370 whole entry, looked up): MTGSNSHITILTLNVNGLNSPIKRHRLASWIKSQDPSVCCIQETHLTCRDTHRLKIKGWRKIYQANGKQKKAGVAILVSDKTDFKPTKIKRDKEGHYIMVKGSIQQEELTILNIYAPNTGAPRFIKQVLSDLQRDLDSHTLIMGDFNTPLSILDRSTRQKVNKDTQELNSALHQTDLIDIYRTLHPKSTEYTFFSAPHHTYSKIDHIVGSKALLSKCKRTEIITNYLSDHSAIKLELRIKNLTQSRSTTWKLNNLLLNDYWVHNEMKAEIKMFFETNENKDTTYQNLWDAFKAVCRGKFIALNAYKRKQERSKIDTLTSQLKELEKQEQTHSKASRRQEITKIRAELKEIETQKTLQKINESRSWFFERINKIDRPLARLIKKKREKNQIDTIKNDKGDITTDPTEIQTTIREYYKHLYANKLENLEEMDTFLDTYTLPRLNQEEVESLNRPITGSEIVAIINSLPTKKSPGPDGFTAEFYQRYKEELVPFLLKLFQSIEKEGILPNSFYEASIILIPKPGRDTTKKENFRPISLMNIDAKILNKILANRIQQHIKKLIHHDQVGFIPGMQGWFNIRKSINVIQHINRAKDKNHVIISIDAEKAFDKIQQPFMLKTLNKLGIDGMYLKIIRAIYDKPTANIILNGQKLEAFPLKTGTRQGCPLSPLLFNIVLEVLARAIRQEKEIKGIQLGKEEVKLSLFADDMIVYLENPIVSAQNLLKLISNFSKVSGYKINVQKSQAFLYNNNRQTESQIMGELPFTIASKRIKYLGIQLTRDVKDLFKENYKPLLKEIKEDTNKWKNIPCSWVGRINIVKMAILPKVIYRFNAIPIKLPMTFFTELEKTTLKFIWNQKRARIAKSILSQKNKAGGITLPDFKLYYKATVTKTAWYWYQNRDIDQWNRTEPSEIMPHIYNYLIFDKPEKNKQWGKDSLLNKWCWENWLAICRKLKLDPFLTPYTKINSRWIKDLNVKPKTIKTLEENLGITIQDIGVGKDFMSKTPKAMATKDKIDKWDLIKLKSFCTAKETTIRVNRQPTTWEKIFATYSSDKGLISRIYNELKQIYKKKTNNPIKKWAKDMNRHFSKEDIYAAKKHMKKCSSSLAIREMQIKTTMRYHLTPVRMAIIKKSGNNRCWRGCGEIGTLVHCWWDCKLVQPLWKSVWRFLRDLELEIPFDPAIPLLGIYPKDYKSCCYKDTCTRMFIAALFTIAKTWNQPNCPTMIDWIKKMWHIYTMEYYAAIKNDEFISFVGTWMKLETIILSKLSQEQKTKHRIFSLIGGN

Take `C#C[C@@]1(CO)C=C[C@H](n2cc(C)c(=O)[nH]c2=O)O1`: in assay [1], the IC50 lay in the range of 50 to 500 nM.

The compound `C#C[C@@]1(COP(=O)(N[C@@H](C)C(=O)OCc2ccccc2)Oc2ccccc2)C=C[C@H](n2cc(C)c(=O)[nH]c2=O)O1` (mixture of isomers) [Benzyl ((((2R,5R)-2-Ethynyl-5-(5-methyl-2,4-dioxo-3,4-dihydropyrimidin-1(2H)-yl)-2,5-dihydrofuran-2-yl)methoxy)(phenoxy)phosphoryl)-L-alaninate] showed an IC50 in assay [1] of 50 to 500 nM.

Turning to `C#C[C@@]1(COP(=O)(N[C@@H](C)C(=O)OC)Oc2ccccc2)C=C[C@H](n2cc(C)c(=O)[nH]c2=O)O1` (mixture of isomers) [Methyl ((((2R,5R)-2-Ethynyl-5-(5-methyl-2,4-dioxo-3,4-dihydropyrimidin-1(2H)-yl)-2,5-dihydrofuran-2-yl)methoxy)(phenoxy)phosphoryl)-L-alaninate], the 50% inhibitory concentration (IC50) in assay [1] was above 500 nM.

In assay [1], `C#C[C@@]1(COP(=O)(N[C@@H](C)C(=O)OC)Oc2ccc(Br)cc2)C=C[C@H](n2cc(C)c(=O)[nH]c2=O)O1` (single isomer, unassigned) [P-Diastereomer 1 from Example 2; I-7 or I-8] registered a half-maximal inhibitory concentration (IC50) of 50 to 500 nM.

Turning to `C#C[C@@]1(COP(=O)(N[C@@H](C)C(=O)OCC(C)(C)C)Oc2cccc3ccccc23)C=C[C@H](n2cc(C)c(=O)[nH]c2=O)O1` (single isomer, unassigned) [P-Diastereomer 1 from Example 2; I-16 or III-1], the half-maximal inhibitory concentration (IC50) in assay [1] and in assay [2] was 50 to 500 nM throughout.

Consider `C#C[C@@]1(COP(=O)(NC(C)(C)C(=O)OC(C)C)Oc2ccccc2)C=C[C@H](n2cc(C)c(=O)[nH]c2=O)O1` (single isomer, unassigned) [P-Diastereomer 1 from Example 2; II-22 or II-23], for which the half-inhibitory concentration (IC50) in assay [1] was above 500 nM.

In the case of `C#C[C@@]1(COP(=O)(NCc2ccccc2)OCCSC(=O)C(C)(C)CO)C=C[C@H](n2cc(C)c(=O)[nH]c2=O)O1` (single isomer, unassigned) [P-Diastereomer 1 from Example 3; II-1 or II-2], the 50% inhibitory concentration (IC50) in assay [1] and in assay [2] was 50 to 500 nM each time.

On to `C#C[C@@]1(COP(=O)(N[C@@H](C)C(=O)OC)Oc2ccc(Br)cc2)C=C[C@H](n2cc(C)c(=O)[nH]c2=O)O1` (single isomer, unassigned) [P-Diastereomer 2 from Example 2; I-7 or I-8], for which the IC50 in assay [2] lay in the range of 50 to 500 nM.

On to `C#C[C@@]1(COP(=O)(N[C@@H](C)C(=O)OCC(C)(C)C)Oc2cccc3ccccc23)C=C[C@H](n2cc(C)c(=O)[nH]c2=O)O1` (single isomer, unassigned) [P-Diastereomer 2 from Example 2; I-16 or III-1], for which the concentration for half-maximal inhibition (IC50) is 50 to 500 nM in assay [1] and at most 50 nM in assay [2].

As for `C#C[C@@]1(COP(=O)(NC(C)(C)C(=O)OC(C)C)Oc2ccccc2)C=C[C@H](n2cc(C)c(=O)[nH]c2=O)O1` (single isomer, unassigned) [P-Diastereomer 2 from Example 2; II-22 or II-23], the half-inhibitory concentration (IC50) in assay [1] is above 500 nM.

Consider `C#C[C@@]1(COP(=O)(NCc2ccccc2)OCCSC(=O)C(C)(C)CO)C=C[C@H](n2cc(C)c(=O)[nH]c2=O)O1` (single isomer, unassigned) [P-Diastereomer 2 from Example 3; II-1 or II-2], for which, in assay [2], the IC50 fell in the range of 50 to 500 nM.

Consider `C#C[C@@]1(CO[P@](=O)(N[C@@H](C)C(=O)OC(C)C)Oc2ccccc2)C=C[C@H](n2cc(C)c(=O)[nH]c2=O)O1` [Compound I-1, Isopropyl ((R)-(((2R,5R)-2-Ethynyl-5-(5-methyl-2,4-dioxo-3,4-dihydropyrimidin-1(2H)-yl)-2,5-dihydrofuran-2-yl)methoxy)(phenoxy)phosphoryl)-L-alaninate], for which the half-inhibitory concentration (IC50) in assay [1] was above 500 nM; in assay [2] it was 50 to 500 nM.

Consider `C#C[C@@]1(CO[P@@](=O)(N[C@@H](C)C(=O)OC(C)C)Oc2ccccc2)C=C[C@H](n2cc(C)c(=O)[nH]c2=O)O1` [Compound I-2, Isopropyl ((S)-(((2R,5R)-2-Ethynyl-5-(5-methyl-2,4-dioxo-3,4-dihydropyrimidin-1(2H)-yl)-2,5-dihydrofuran-2-yl)methoxy)(phenoxy)phosphoryl)-L-alaninate], for which the figures for the IC50 in assay [1] and in assay [2] were above 500 nM and 50 to 500 nM, respectively.

`C#C[C@@]1(CO[P@](=O)(N[C@@H](C)C(=O)OCC(CC)CC)Oc2ccccc2)C=C[C@H](n2cc(C)c(=O)[nH]c2=O)O1` [Compound I-5, 2-Ethylbutyl ((R)-(((2R,5R)-2-Ethynyl-5-(5-methyl-2,4-dioxo-3,4-dihydropyrimidin-1(2H)-yl)-2,5-dihydrofuran-2-yl)methoxy)(phenoxy)phosphoryl)-L-alaninate]: the IC50 in assay [1] and in assay [2] was 50 to 500 nM each time.

With `C#C[C@@]1(CO[P@@](=O)(N[C@@H](C)C(=O)OCC(CC)CC)Oc2ccccc2)C=C[C@H](n2cc(C)c(=O)[nH]c2=O)O1` [Compound I-6, 2-Ethylbutyl ((S)-(((2R,5R)-2-Ethynyl-5-(5-methyl-2,4-dioxo-3,4-dihydropyrimidin-1(2H)-yl)-2,5-dihydrofuran-2-yl)methoxy)(phenoxy)phosphoryl)-L-alaninate], the IC50 in assay [1] and in assay [2] was 50 to 500 nM throughout.

Regarding `C#C[C@@]1(COP(=O)(OCOC(=O)OC(C)C)OCOC(=O)OC(C)C)C=C[C@H](n2cc(C)c(=O)[nH]c2=O)O1` [IV-1, 1-[(2R,5R)-5-[({di[(isopropoxycarbonyl)oxy]methoxyphosphoryl}oxy)methyl]-5-ethynyl-2H-furan-2-yl]-5-methyl-3H-pyrimidine-2,4-dione], in assay [1], the IC50 is at most 50 nM.

The record behind these values is patent publication US20250282803A1, “DIDEHYDRO-3'-DEOXY-4'-ETHYNYLTHYMIDINES AND RELATED COMPOUNDS AND THEIR USE IN TREATING MEDICAL CONDITIONS” (ROME Therapeutics, Inc., priority 2022, published 2025).
